Converted amounts (≈) assume the structure as drawn. Where two headings read alike, the source gives them in different places.
Key:
[1] = tested on: Vibrio aesturianus; assay: Antibacterial bioassay, inhibition of bacterial growth (MIC); format: cell-based, Vibrio aestuarianus (ATCC 35048); conditions: for MIC: Vibrio
Procedure: (§1) Preparation of the compounds: antifouling efficiency of the compounds was assessed towards the inhibition of growth of key bacteria involved in marine and terrestrial surface colonisation. All bioassays were run in six replicates and using two batches of organisms. Compounds were tested at 0.01, 0.1, and 1 µg/mL. 96 well-plates were used and were coated with the compounds. Methanol was used as a carrier solvent and after its evaporation plates were sterilized under UV exposure for 30 min [41].
(§2) Seven strains of marine bacteria i.e., Halomonas aquamarina (ATCC 14400), Polaribacter irgensii (ATCC 700398), Shewanella putrefaciens (ATCC 8071), Roseobacter littoralis (ATCC 495666), Pseudoalteromonas elyakovii (ATCC 700519), Vibrio aestuarianus (ATCC 35048), Vibrio natriegens (ATCC 14058), and three strains of terrestrial bacteria, i.e., Escherichia coli (ATCC 11775), Staphylococcus aureus (ATCC 126000), and Pseudomonas aeruginosa (ATCC 16145) were used to assess the antibacterial potency of the compounds.
(§3) Inhibition of bacterial growth: experiments were run as previously described by Maréchal et al.. 96-well plates containing the compounds were inoculated with the bacteria (2 × 10^8 cells/mL) in LB medium ([…], Sigma, Andover, UK), (supplemented with NaCl (35 g/L) for marine strains), at 30 °C for 48 h. After incubation, the intensity of growth in the presence of the tested compounds and control (media only) was assessed by measurement of the OD 620 nm using a spectrophotometer (Apollo LB912, Berthold Technologies). Results are expressed as minimum inhibitory concentrations (MIC values).

[2] = tested on: Roseobacter littoralis; assay: as above; format: cell-based, Roseobacter littoralis (ATCC 495666); conditions: 48 h; for MIC: read-out: MIC Roseobacter littoralis
Procedure: as §1, §2, §3

[3] = tested on: Halomonas aquamarina; assay: as above; format: cell-based, Halomonas aquamarina (ATCC 14400); conditions: for MIC Halomonas aquamarina / MIC: 48 h; for MIC toward Halomonas aquamarina: the lowest concentration tested; for MIC: Vreelandella aquamarina, read-out: MIC Halomonas aquamarina
Procedure: as §1, §2, §3

[4] = tested on: Escherichia coli; assay: as above; format: cell-based, Escherichia coli (ATCC 11775); conditions: for MIC: Escherichia coli
Procedure: as §1, §2, §3

[5] = target: T1, Acetylcholinesterase from Electrophorus electricus (Electrophorus electricus, UniProt O42275); assay: biochemical; format: biochemical
T1 construct: purchased Sigma-Aldrich
Procedure: This bioassay was set up after Ellman. This method is the most commonly used to screen compounds against this target. All reagents, buffers, and salts were purchased from Sigma-Aldrich (Saint-Louis, MO, USA). Two buffer solutions were prepared extemporaneously: buffer A (50 mM Tris-HCl pH 8 + 0.1% BSA); and buffer B (50 mM Tris-HCl pH 8 + 0.1 M NaCl + 0.02 M MgCl2.6H2O). Acetylcholinesterase from Electrophorus electricus (EC 3.1.1.7, AChE−0.2 U/mL) was dissolved in buffer A, 5,5′-dithiobis-2-nitrobenzoic acid (DTNB-Ellman’s reagent−3 mM) in buffer B, and acetylthiocholine iodide (ACTI−6 mM) in H2O. Tested compounds were dissolved in DMSO at 10 mg/mL, stored at −20 °C, and subsequently 100 times diluted in H2O before the assay. 10 μL AChE was preincubated for 10 min with 70 μL DTNB and 10 μL compounds solution in 96-well microplates. The enzymatic reaction was initiated with the addition of 10 μL ACTI, a synthetic substrate of AChE. After 30 min at 25 °C, absorbance of the plate was measured at 405 nm using a microplate reader (Tecan Infinite M200). Percentage of inhibition was calculated using the following equation: 100 × (Acontrol − Asample)/(Acontrol − A0), where Acontrol is the average absorbance of the wells in which tested compounds were replaced by water, Asample is the absorbance of the well with tested compound, and A0 the average absorbance of blank wells where AChE was omitted. Products leading to 50% inhibition of AChE were then submitted to dose-response experiments. Serial dilutions of the products were prepared (100, 50, 25, 12.5, 6.25, 3.125, 1.5625, and 0.78125 µg/mL). Enzymatic assay was performed according to the same procedure with 10 µL of each concentration added. IC50 values (concentration leading to 50% inhibition of enzymatic activity) were graphically determined by plotting the percentage of inhibition against the compound concentrations.
Each assay was performed in triplicate and results are expressed as mean values ± SD.

[6] = target: T2, DNMT1 (Homo sapiens, UniProt P26358); assay: In vitro DNMT1 activity inhibition assay; format: biochemical; conditions: compounds at 50 µM, 25 ng purified DNMT1, 2 h, 37 °C, three independent experiments
T2 construct: purchased Active Motif
Procedure: DNMT1 activity was measured using in vitro DNMT activity/inhibition assay (Active Motif, Rixensart, Belgium) according to manufacturer’s instructions. All compounds were used at a final 50 µM concentration. The methylation reaction was performed by incubating 25 ng of purified DNMT1 with compounds for 2 h at 37 °C in the presence of 0.01% Triton X-100. The methylated DNA was then recognized by the His-tagged methyl-CpG binding domain protein 2b. The addition of a poly-histidine antibody conjugated to horseradish peroxidase provided a colorimetric readout quantified with a spectrophotometer (SpectraCount, Packard) at the wavelength of 450 nm. Data of DNMT1 activity are reported as percentage of control.

[7] = Degradation of 11-epi-fistularin-3 in acetonitrile/water (+0.1% HCOOH); format: physicochemical; conditions: acetonitrile/water (+0.1% HCOOH) 1/1, room temperature, two weeks; HPLC analysis
Source text: We then decided to manage the degradation process of epi-fistularin-3 (1) in a less drastic conditions by dissolving it in a mixture of acetonitrile/water (+0.1% HCOOH) 1/1 and stirring at room temperature for two weeks. The reaction mixture was then dried under vacuum and chromatographed.
The reaction mixture was then dried under vacuum and submitted for HPLC analysis.

[8] = tested at 0.01, 0.1 and 1 µg/mL, 30 °C, 48 h, OD 620 nm
[9] = tested at 0.01, 0.1 and 1 µg/mL, 30 °C, OD 620 nm
[10] = mean ± SD, triplicate, 30 min at 25 °C, absorbance 405 nm, read-out: Acetylcholinesterase IC50
[11] = tested at 0.01, 0.1 and 1 µg/mL, 30 °C, 48 h, OD 620 nm, read-out: MIC Vibrio aesturianus
[12] = tested at 0.01, 0.1 and 1 µg/mL, 30 °C, 48 h, OD 620 nm, read-out: MIC Escherichia coli

T1 sequence (O42275 24-633): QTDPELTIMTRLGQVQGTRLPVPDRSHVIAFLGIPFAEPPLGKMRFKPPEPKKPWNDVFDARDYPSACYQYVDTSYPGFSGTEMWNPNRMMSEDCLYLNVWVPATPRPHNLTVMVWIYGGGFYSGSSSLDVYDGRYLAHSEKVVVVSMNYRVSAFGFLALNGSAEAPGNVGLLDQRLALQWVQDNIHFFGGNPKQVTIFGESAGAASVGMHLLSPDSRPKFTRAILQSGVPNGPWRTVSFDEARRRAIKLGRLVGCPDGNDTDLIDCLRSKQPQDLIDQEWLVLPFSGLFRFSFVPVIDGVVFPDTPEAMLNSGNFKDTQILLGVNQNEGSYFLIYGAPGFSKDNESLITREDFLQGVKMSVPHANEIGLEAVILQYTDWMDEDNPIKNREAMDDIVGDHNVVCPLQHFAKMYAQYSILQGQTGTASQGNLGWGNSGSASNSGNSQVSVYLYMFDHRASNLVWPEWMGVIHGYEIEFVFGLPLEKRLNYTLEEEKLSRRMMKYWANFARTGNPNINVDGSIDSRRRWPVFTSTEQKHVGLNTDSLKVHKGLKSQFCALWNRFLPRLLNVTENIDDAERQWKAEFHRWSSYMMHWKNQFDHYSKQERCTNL
T2 sequence (P26358 whole entry): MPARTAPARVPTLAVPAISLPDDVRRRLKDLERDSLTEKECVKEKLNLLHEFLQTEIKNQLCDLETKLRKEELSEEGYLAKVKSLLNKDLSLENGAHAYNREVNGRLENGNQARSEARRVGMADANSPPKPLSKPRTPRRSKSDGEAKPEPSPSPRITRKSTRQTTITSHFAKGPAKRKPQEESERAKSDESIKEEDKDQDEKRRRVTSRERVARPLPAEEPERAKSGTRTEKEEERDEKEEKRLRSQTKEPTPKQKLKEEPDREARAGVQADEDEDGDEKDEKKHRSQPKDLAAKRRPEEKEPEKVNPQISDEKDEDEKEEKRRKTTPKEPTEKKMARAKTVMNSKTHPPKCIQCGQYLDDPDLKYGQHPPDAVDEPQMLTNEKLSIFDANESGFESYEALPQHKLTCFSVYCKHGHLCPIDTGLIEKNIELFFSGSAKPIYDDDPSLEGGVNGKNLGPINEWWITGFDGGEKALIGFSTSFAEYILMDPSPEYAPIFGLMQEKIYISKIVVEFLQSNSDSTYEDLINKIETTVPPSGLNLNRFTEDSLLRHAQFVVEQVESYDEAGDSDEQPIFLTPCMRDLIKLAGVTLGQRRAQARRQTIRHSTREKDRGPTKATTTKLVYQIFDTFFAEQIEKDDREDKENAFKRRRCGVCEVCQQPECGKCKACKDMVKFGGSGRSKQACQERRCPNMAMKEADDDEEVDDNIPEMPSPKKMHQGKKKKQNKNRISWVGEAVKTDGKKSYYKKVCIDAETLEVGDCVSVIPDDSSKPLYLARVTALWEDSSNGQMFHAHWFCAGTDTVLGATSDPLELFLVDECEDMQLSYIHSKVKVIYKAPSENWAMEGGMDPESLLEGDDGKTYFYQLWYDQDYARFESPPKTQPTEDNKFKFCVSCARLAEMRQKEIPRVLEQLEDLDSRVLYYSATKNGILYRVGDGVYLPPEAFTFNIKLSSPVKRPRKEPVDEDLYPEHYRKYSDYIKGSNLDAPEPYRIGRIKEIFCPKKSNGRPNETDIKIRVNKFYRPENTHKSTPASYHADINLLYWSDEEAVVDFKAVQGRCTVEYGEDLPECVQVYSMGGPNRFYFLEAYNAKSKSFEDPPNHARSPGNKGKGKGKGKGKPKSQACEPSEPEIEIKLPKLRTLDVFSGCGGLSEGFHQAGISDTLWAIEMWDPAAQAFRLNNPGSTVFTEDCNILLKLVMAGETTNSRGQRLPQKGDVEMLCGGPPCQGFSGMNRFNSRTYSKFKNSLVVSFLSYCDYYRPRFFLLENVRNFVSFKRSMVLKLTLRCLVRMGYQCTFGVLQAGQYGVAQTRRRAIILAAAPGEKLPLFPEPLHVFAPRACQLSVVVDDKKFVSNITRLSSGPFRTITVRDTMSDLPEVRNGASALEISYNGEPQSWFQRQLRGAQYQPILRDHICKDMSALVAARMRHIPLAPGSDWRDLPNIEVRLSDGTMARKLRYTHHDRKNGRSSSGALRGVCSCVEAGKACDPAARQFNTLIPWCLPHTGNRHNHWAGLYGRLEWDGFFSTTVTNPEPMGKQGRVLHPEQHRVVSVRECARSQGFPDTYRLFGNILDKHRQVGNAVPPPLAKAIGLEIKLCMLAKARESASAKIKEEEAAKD

Molecule | MIC Vibrio aesturianus [1, 8] | MIC Roseobacter littoralis [2, 9] | MIC Halomonas aquamarina [3, 9] | MIC Escherichia coli [4, 8] | IC50 [5, 10] | MIC [1, 11] | MIC [2, 9] | MIC [3, 9] | MIC [4, 12] | also measured
COC1=C(Br)C(O)C2(C=C1Br)CC(C(=O)NCCCOc1c(Br)cc(CCNC(=O)C3=NOC4(C=C(Br)C(OC)=C(Br)C4O)C3)cc1Br)=NO2 (stereo not drawn) [11,17-dideoxyfistularin (14), 11,17-dideoxyfistularin-3] | >1 µg/mL | >1 µg/mL | 0,01 µg/mL | >1 µg/mL | 10 ± 0.3 µM | – | – | – | – | MIC toward Halomonas aquamarina [3]: 0.01 µg/mL (≈ 0.00924 µM); DNMT1 activity, percentage of control [6]: statistically significant decrease
COC1=C(Br)[C@H](O)[C@@]2(C=C1Br)CC(C(=O)NCCCOc1c(Br)cc(C(O)CNC(=O)C3=NO[C@]4(C=C(Br)C(OC)=C(Br)[C@@H]4O)C3)cc1Br)=NO2 (stereo partly drawn) [11-deoxyfistularin-3 (13), 11-deoxyfistularin-3] | >1 µg/mL | >1 µg/mL | 0,01 µg/mL | >1 µg/mL | > 10 µM | – | – | – | – | MIC toward Halomonas aquamarina [3]: 0.01 µg/mL (≈ 0.00911 µM)
COC1=C(Br)[C@H](O)[C@@]2(C=C1Br)CC(C(=O)NCCC(O)CNC(=O)C1=NO[C@]3(C=C(Br)C(OC)=C(Br)[C@@H]3O)C1)=NO2 (stereo partly drawn) [11-hydroxyaerothionin (15), 11-hydroxy-aerothionin] | >1 µg/mL | >1 µg/mL | 0,01 µg/mL | >1 µg/mL | 10 ± 0.3 µM | – | – | – | – | –
COC1=C(Br)[C@H](O)[C@@]2(C=C1Br)CC(C(=O)NCCc1cc(Br)c(OC[C@H](O)CNC(=O)C3=NO[C@]4(C=C(Br)C(OC)=C(Br)[C@@H]4O)C3)c(Br)c1)=NO2 [17-deoxy-11-epi-fistularin-3 (10), 17-deoxy-11(R)-epi-fistularin-3] | – | – | – | – | > 10 µM | > 1 µM | > 1 µM | 0.01 µM (≈ 0.011 µg/mL) | > 1 µM | –
COC1=C(Br)[C@H](O)[C@@]2(C=C1Br)CC(C(=O)NCC(=O)c1cc(Br)c(OC[C@H](O)CNC(=O)C3=NO[C@]4(C=C(Br)C(OC)=C(Br)[C@@H]4O)C3)c(Br)c1)=NO2 [17-oxo-11-epi-fistularin-3 (8), 17-oxo-11-epi-fistularin-3] | – | – | – | – | – | – | – | – | – | MIC ([1]; 48 h, read-out: MIC Vibrio aesturianus): 0.01 µM; MIC [2]: > 1 µM; MIC [3]: > 1 µM; MIC ([4]; 48 h, read-out: MIC Escherichia coli): > 1 µM; IC50 [5]: > 10 µM
COC1=C(Br)[C@H](O)[C@@]2(C=C1Br)CC(C(=O)NC[C@@H](O)COc1c(Br)cc([C@H](O)CNC(=O)C3=NO[C@]4(C=C(Br)C(OC)=C(Br)[C@@H]4O)C3)cc1Br)=NO2 [epi-fistularin-3 (1), 11-epi-fistularin-3] | – | – | – | – | > 10 µM | > 1 µM | > 1 µM | > 1 µM | > 1 µM | remaining activity at 50 µM ([6]; read-out: DNMT1 activity, percentage of control): ~70%; stability in acidic aqueous acetonitrile (degradation products) [7]: gave agelorin A, agelorin B, and the compounds 2–7
COC1=C(Br)[C@H](O)[C@@]2(C=C1Br)CC(C(=O)NC[C@@H](O)COc1c(Br)cc([C@H](O)CNC(=O)/C(Cc3cc(Br)c(OC)c(Br)c3O)=N/O)cc1Br)=NO2 [suberein-1 (2), suberein-1] | – | – | – | – | > 10 µM | 0.01 µM | 1 µM (≈ 1.11 µg/mL) | > 1 µM | > 1 µM | –
COC1=C(Br)[C@H](O)[C@@]2(C=C1Br)CC(C(=O)NC[C@@H](O)c1cc(Br)c(OC[C@H](O)CNC(=O)/C(Cc3cc(Br)c(OC)c(Br)c3O)=N/O)c(Br)c1)=NO2 [suberein-2 (3), suberein-2] | – | – | – | – | > 10 µM | 0.01 µM | > 1 µM | > 1 µM | 0.01 µM | MIC ([1]; the lowest concentration tested, read-out: MIC against V. aesturianus): 0.01 µg/mL; MIC ([4]; the lowest concentration tested, read-out: MIC against E. coli): 0.01 µg/mL
agelorin A [agelorin A (11)] | 0.1 µg/mL | 0.1 µg/mL | 0.1 µg/mL | – | – | – | – | – | – | –
agelorin B [agelorin B (12)] | >1 µg/mL | >1 µg/mL | >1 µg/mL | >1 µg/mL | – | – | – | – | – | –
